Measured values: PMC7265341, “Quantifying CDK inhibitor selectivity in live cells” (Nature Communications, 2020)
Where two headings read alike, the source gives them in different places.

Key:
[1] = molecular target: CDK12/Cyclin K (Homo sapiens, UniProt Q9NYV4); test: NanoBRET live-cell target engagement, CDK12-NanoLuc/Cyclin K in HEK-293; format: binding; conditions: CDK12/K, 10µM
[2] = molecular target: CDK19/Cyclin C (Homo sapiens, UniProt Q9BWU1); test: NanoBRET live-cell target engagement, NanoLuc-CDK19/Cyclin C in HEK-293; conditions: for inhibition at 10 µM: read-out: Inhibition at 10µM (%), CDK19/C
[3] = molecular target: CDK17/Cyclin Y (Homo sapiens, UniProt Q00537); test: NanoBRET live-cell target engagement, CDK17-NanoLuc/Cyclin Y in HEK-293; format: binding; conditions: CDK17/Y, 10µM
[4] = molecular target: CDK18/Cyclin Y (Homo sapiens, UniProt Q07002); test: NanoBRET live-cell target engagement, CDK18-NanoLuc/Cyclin Y in HEK-293; format: binding; conditions: CDK18/Y, 10µM
[5] = molecular target: CDK4/Cyclin D1 (Homo sapiens, UniProt P11802); test: NanoBRET live-cell target engagement, NanoLuc-CDK4/Cyclin D1 in HEK-293; format: binding; conditions: CDK4/D1, 10µM
[6] = molecular target: CDK11B/Cyclin L2 (Homo sapiens, UniProt P21127); test: NanoBRET live-cell target engagement, CDK11B-NanoLuc/Cyclin L2 in HEK-293; format: binding; conditions: CDK11b/L2; for inhibition at 10 µM: read-out: Inhibition at 10µM (%)
[7] = molecular target: CDK14/Cyclin Y (Homo sapiens, UniProt O94921); test: NanoBRET live-cell target engagement, CDK14-NanoLuc/Cyclin Y in HEK-293; format: binding; conditions: CDK14/Y, 10µM
[8] = molecular target: CDK5/CDK5R1 (Homo sapiens, UniProt Q00535); test: NanoBRET live-cell target engagement, CDK5-NanoLuc/CDK5R1 in HEK-293; format: binding; conditions: CDK5/CDK5R1, 10µM
[9] = molecular target: CDK16/Cyclin Y (Homo sapiens, UniProt Q00536); test: NanoBRET live-cell target engagement, CDK16-NanoLuc/Cyclin Y in HEK-293; format: binding; conditions: CDK16/Y; 10µM
[10] = molecular target: CDK15/Cyclin Y (Homo sapiens, UniProt Q96Q40); test: NanoBRET live-cell target engagement, NanoLuc-CDK15/Cyclin Y in HEK-293; format: binding; conditions: CDK15/Y, 10µM
[11] = system: all 21 human CDKs; test: Live-cell selectivity profile across all 21 CDK/cyclin complexes in HEK-293; format: binding; conditions: live cells
[12] = molecular target: CDK3/Cyclin E1 (Homo sapiens, UniProt Q00526); test: NanoBRET live-cell target engagement, CDK3-NanoLuc/Cyclin E1 in HEK-293; format: binding; conditions: CDK3/E1, 10µM
[13] = molecular target: T1, CDK11A/Cyclin L2 (Homo sapiens, UniProt Q9UQ88); test: NanoBRET live-cell target engagement, CDK11A-NanoLuc/Cyclin L2 in HEK-293; format: binding; conditions: CDK11a/L2; for inhibition at 10 µM: read-out: Inhibition at 10µM (%)
T1 sequence (Q9UQ88 1-783): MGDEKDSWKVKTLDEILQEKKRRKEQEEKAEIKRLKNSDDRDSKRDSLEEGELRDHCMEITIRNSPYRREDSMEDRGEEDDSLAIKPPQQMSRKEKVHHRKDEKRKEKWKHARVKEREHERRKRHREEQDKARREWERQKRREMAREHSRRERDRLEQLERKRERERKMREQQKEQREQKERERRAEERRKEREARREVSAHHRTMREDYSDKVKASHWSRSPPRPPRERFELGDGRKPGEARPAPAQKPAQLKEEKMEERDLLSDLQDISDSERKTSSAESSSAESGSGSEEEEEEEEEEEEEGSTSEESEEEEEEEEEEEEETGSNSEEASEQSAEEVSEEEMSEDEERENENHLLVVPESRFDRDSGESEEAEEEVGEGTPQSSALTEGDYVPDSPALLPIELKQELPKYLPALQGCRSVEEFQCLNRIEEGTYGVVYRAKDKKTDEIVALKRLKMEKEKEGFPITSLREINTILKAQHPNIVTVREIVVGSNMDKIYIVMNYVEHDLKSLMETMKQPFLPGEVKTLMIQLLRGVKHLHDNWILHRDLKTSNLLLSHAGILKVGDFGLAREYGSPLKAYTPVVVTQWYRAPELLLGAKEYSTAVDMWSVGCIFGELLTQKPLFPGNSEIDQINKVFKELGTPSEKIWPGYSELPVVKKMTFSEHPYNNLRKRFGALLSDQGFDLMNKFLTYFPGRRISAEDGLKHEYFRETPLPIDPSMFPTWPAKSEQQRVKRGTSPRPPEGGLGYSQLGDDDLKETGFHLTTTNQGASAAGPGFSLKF

[14] = molecular target: CDK8/Cyclin C (Homo sapiens, UniProt P49336); test: NanoBRET live-cell target engagement, NanoLuc-CDK8/Cyclin C in HEK-293; format: binding; conditions: CDK8/C; for inhibition at 10 µM: read-out: Inhibition at 10µM (%)
[15] = molecular target: CDK6/Cyclin D1 (Homo sapiens, UniProt Q00534); test: NanoBRET live-cell target engagement, NanoLuc-CDK6/Cyclin D1 in HEK-293; format: binding; conditions: CDK6/D1, 10µM
[16] = molecular target: CDK2/Cyclin E1 (Homo sapiens, UniProt P24941); test: NanoBRET live-cell target engagement, CDK2-NanoLuc/Cyclin E1 in HEK-293; format: binding; conditions: CDK2/E1, 10µM
[17] = molecular target: CDK9/Cyclin K (Homo sapiens, UniProt P50750); test: NanoBRET live-cell target engagement, NanoLuc-CDK9/Cyclin K in HEK-293; format: binding; conditions: CDK9/K, 10µM
[18] = molecular target: CDK20/Cyclin H (Homo sapiens, UniProt Q8IZL9); test: NanoBRET live-cell target engagement, NanoLuc-CDK20/Cyclin H in HEK-293; format: binding; conditions: for inhibition at 10 µM: read-out: Inhibition at 10µM (%), CDK20/H
[19] = molecular target: CDK13/Cyclin K (Homo sapiens, UniProt Q14004); test: NanoBRET live-cell target engagement, CDK13-NanoLuc/Cyclin K in HEK-293; format: binding; conditions: CDK13/K, 10µM
[20] = molecular target: T2, CDK10/Cyclin L2 (Homo sapiens, UniProt Q15131); test: NanoBRET live-cell target engagement, CDK10-NanoLuc/Cyclin L2 in HEK-293; conditions: for IC50: n=1; for inhibition at 10 µM: read-out: Inhibition at 10µM (%), CDK10/L2
[21] = molecular target: CDK1/Cyclin E1 (Homo sapiens, UniProt P06493); test: NanoBRET live-cell target engagement, CDK1-NanoLuc/Cyclin E1 in HEK-293; format: binding; conditions: CDK1/E1, 10µM
[22] = molecular target: CDK7 (Homo sapiens, UniProt P50613); test: NanoBRET live-cell target engagement, NanoLuc-CDK7 in HEK-293; format: binding
[23] = molecular target: T2, CDK10/Cyclin L2; test: cell-based

Chain of CDK20/Cyclin H (Q8IZL9 whole entry): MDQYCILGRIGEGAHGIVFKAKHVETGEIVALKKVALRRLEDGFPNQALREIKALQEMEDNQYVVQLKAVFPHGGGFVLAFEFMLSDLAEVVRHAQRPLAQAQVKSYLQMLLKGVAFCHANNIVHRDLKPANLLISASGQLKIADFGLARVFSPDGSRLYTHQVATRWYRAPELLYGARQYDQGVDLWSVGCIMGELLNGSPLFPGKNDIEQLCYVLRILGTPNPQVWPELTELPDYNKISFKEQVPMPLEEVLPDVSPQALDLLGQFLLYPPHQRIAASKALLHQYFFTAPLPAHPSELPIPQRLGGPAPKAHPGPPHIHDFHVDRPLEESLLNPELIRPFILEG
Chain of CDK20/Cyclin H (P51946 whole entry partner): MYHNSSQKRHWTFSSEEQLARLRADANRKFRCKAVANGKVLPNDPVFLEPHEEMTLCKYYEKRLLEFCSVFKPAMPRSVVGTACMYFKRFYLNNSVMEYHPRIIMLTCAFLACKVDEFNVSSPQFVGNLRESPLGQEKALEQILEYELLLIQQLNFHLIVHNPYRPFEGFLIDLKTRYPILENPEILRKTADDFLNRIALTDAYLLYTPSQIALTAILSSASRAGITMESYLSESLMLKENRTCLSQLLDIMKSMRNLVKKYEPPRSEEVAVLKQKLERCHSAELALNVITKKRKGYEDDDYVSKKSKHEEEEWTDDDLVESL
Chain of CDK3/Cyclin E1 (Q00526 whole entry): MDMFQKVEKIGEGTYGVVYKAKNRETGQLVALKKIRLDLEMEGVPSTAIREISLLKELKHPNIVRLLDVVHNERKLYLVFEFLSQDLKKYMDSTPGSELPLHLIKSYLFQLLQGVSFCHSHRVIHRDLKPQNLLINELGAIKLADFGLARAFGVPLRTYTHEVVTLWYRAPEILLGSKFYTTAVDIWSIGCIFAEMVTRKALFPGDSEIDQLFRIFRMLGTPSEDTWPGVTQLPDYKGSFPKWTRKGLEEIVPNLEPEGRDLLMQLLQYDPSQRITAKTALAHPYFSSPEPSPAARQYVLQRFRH
Chain of CDK3/Cyclin E1 (P24864 whole entry partner): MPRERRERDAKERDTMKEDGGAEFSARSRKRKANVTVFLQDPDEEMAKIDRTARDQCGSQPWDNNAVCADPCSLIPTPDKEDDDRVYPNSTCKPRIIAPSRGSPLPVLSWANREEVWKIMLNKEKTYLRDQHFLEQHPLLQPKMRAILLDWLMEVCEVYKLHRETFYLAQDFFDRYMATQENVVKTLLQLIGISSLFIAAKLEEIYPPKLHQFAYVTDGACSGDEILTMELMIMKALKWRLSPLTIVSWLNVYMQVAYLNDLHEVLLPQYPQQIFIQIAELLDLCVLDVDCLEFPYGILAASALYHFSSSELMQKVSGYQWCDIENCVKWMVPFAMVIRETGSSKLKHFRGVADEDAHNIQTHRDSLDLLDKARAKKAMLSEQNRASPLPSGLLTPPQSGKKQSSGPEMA
Chain of CDK17/Cyclin Y (Q00537 whole entry): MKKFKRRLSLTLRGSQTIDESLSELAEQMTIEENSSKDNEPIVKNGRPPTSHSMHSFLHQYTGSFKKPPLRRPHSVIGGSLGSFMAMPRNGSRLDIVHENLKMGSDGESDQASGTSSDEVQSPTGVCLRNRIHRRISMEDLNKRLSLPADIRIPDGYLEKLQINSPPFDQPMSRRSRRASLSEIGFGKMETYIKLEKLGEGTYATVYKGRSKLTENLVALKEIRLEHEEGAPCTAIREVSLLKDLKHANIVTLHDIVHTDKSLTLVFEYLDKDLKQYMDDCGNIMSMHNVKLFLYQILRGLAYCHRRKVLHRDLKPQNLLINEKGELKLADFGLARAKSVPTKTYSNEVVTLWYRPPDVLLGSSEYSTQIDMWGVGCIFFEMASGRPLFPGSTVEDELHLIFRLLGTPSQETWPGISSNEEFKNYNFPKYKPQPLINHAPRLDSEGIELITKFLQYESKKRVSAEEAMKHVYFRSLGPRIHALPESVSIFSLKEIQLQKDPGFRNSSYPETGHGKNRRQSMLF
Chain of CDK17/Cyclin Y (Q8ND76 whole entry partner): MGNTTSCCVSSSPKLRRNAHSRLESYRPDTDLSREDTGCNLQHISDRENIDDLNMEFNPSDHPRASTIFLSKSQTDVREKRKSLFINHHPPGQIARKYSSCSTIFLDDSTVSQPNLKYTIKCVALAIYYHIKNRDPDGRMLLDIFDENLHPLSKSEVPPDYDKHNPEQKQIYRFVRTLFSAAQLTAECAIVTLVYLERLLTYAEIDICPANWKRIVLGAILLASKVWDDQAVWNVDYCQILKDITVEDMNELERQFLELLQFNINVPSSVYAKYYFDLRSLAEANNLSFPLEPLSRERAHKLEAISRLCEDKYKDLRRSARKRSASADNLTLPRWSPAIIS
Chain of CDK9/Cyclin K (P50750 whole entry): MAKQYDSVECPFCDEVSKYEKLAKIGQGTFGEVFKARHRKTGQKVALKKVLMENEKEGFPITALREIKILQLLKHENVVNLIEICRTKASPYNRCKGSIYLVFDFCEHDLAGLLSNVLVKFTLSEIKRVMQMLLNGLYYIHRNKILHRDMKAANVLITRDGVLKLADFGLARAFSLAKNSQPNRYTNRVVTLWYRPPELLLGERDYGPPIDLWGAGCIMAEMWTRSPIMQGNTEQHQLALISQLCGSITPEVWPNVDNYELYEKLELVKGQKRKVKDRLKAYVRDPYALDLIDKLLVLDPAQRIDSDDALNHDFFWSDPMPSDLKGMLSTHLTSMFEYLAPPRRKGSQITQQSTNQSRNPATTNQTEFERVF
Chain of CDK9/Cyclin K (O75909 whole entry partner): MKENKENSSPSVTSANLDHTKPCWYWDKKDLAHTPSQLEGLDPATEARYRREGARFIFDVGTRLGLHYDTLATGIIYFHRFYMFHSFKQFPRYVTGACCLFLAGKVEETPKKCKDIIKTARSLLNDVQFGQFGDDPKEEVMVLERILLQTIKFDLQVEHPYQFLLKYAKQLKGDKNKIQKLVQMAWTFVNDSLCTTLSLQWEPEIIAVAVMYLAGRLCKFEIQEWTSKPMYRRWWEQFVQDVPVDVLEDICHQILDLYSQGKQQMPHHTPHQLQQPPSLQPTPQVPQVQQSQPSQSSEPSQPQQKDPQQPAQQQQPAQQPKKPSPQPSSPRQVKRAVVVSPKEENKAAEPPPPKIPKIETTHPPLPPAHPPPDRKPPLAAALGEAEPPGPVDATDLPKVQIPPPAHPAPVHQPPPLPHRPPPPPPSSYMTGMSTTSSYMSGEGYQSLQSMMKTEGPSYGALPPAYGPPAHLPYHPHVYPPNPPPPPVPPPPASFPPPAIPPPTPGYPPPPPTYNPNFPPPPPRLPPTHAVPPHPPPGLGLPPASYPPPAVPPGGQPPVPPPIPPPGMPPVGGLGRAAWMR
T2 sequence (Q15131 whole entry): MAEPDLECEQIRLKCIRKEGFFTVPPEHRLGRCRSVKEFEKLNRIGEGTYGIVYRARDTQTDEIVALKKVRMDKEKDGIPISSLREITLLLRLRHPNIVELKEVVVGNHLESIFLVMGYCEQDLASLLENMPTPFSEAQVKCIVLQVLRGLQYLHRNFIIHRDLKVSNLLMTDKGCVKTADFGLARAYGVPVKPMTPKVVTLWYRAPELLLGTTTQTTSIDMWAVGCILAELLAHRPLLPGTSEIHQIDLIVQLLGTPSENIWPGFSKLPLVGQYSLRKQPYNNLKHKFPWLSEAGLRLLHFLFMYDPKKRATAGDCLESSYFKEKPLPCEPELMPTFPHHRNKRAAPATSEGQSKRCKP
Chain of CDK5/CDK5R1 (Q00535 whole entry): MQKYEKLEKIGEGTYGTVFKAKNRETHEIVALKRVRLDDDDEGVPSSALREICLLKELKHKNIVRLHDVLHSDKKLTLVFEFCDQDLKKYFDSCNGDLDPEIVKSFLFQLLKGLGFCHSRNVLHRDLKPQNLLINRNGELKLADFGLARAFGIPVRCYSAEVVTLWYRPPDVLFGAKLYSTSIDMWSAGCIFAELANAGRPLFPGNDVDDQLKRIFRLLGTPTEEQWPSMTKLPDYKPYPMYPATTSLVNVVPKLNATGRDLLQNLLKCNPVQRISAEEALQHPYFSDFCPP
Chain of CDK5/CDK5R1 (Q15078 whole entry partner): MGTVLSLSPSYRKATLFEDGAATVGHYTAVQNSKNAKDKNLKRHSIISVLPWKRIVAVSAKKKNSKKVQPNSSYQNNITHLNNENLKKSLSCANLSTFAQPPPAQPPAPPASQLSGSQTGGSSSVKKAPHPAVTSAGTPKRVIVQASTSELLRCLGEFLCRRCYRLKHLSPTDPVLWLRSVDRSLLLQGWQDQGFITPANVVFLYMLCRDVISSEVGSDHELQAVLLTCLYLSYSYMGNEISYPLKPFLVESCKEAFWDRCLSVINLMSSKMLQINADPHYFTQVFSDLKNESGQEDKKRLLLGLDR
Chain of CDK6/Cyclin D1 (Q00534 whole entry): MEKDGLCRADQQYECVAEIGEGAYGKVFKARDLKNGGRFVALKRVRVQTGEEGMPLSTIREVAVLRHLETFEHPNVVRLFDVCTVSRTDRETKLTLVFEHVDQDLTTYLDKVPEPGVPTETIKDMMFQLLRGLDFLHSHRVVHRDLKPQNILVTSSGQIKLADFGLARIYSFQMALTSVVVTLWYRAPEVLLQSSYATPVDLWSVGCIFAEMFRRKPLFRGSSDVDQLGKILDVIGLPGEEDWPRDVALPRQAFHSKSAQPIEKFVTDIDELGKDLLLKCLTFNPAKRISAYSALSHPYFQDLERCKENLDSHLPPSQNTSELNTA
Chain of CDK6/Cyclin D1 (P24385 whole entry partner): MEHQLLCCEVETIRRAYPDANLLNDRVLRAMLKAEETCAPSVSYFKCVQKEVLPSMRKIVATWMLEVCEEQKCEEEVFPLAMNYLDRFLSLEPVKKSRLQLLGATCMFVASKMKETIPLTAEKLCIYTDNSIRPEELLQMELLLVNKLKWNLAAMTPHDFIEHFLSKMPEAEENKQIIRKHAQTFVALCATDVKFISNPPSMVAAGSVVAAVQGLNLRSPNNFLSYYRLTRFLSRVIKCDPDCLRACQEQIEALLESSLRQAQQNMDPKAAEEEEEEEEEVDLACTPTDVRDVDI

## O=C(Nc1c[nH]nc1-c1ccccn1)c1nn(C2CCNCC2)cc1Cl [BDP5290]
[1]
  Inhibition at 10µM (%) Replicate 1: 6.2%
  Inhibition at 10µM (%) Replicate 2: -2.0%
[1]; average of replicates
  Inhibition at 10µM (%) Average: 2.1%
[2]; CDK19/C, 10µM
  Inhibition at 10µM (%) Replicate 1: 12.8%
  Inhibition at 10µM (%) Replicate 2: -7.7%
[2]; CDK19/C, 10µM, average of replicates
  Inhibition at 10µM (%) Average: 2.6%
[3]
  Inhibition at 10µM (%) Replicate 1: 0.247%
  Inhibition at 10µM (%) Replicate 2: 1.8%
[3]; average of replicates
  Inhibition at 10µM (%) Average: 1.0%
[4]
  Inhibition at 10µM (%) Replicate 1: 16.5%
  Inhibition at 10µM (%) Replicate 2: 10.0%
[4]; average of replicates
  Inhibition at 10µM (%) Average: 13.2%
[5]
  Inhibition at 10µM (%) Replicate 1: 13.2%
  Inhibition at 10µM (%) Replicate 2: 14.4%
[5]; average of replicates
  Inhibition at 10µM (%) Average: 13.8%
[6]; 10µM
  Inhibition at 10µM (%) Replicate 1: 8.9%
  Inhibition at 10µM (%) Replicate 2: -3.2%
[6]; 10µM, average of replicates
  Inhibition at 10µM (%) Average: 2.8%
[7]
  Inhibition at 10µM (%) Replicate 1: -4.4%
  Inhibition at 10µM (%) Replicate 2: -10.4%
[7]; average of replicates
  Inhibition at 10µM (%) Average: -7.4%
[8]
  Inhibition at 10µM (%) Replicate 1: 7.9%
  Inhibition at 10µM (%) Replicate 2: -3.3%
[8]; average of replicates
  Inhibition at 10µM (%) Average: 2.3%
[9]
  Inhibition at 10µM (%) Replicate 1: 4.2%
  Inhibition at 10µM (%) Replicate 2: -9.2%
[10]
  Inhibition at 10µM (%) Replicate 1: 8.0%
  Inhibition at 10µM (%) Replicate 2: 6.5%
[10]; average of replicates
  Inhibition at 10µM (%) Average: 7.2%
[11]
  engagement of CDKs at concentrations up to 10μM: only weakly engaged
[12]
  Inhibition at 10µM (%) Replicate 1: 4.4%
  Inhibition at 10µM (%) Replicate 2: 3.4%
[12]; average of replicates
  Inhibition at 10µM (%) Average: 3.9%
[13]; 10µM
  Inhibition at 10µM (%) Replicate 1: -5.6%
  Inhibition at 10µM (%) Replicate 2: 5.6%
[13]; 10µM, average of replicates
  Inhibition at 10µM (%) Average: -0.00201%
[14]; 10µM
  Inhibition at 10µM (%) Replicate 1: 6.1%
  Inhibition at 10µM (%) Replicate 2: -10.6%
[14]; 10µM, average of replicates
  Inhibition at 10µM (%) Average: -2.2%
[15]
  Inhibition at 10µM (%) Replicate 1: 5.5%
  Inhibition at 10µM (%) Replicate 2: 5.4%
[15]; average of replicates
  Inhibition at 10µM (%) Average: 5.5%
[16]
  Inhibition at 10µM (%) Replicate 1: -7.9%
  Inhibition at 10µM (%) Replicate 2: 7.7%
[16]; average of replicates
  Inhibition at 10µM (%) Average: -0.109%
[17]
  Inhibition at 10µM (%) Replicate 1: 12.5%
  Inhibition at 10µM (%) Replicate 2: 29.1%
[17]; average of replicates
  Inhibition at 10µM (%) Average: 20.8%
[18]; CDK20/H, 10µM
  Inhibition at 10µM (%) Replicate 1: 14.8%
  Inhibition at 10µM (%) Replicate 2: 26.9%
[19]
  Inhibition at 10µM (%) Replicate 1: 3.0%
  Inhibition at 10µM (%) Replicate 2: -9.6%
[19]; average of replicates
  Inhibition at 10µM (%) Average: -3.3%
[20]; CDK10/L2, 10µM
  Inhibition at 10µM (%) Replicate 1: 1.9%
  Inhibition at 10µM (%) Replicate 2: 8.8%
[20]; CDK10/L2, 10µM, average of replicates
  Inhibition at 10µM (%) Average: 5.4%
[21]
  Inhibition at 10µM (%) Replicate 1: 19.1%
  Inhibition at 10µM (%) Replicate 2: 12.1%
[21]; average of replicates
  Inhibition at 10µM (%) Average: 15.6%
[22]; CDK7, 10µM
  Inhibition at 10µM (%) Replicate 1: 9.8%
  Inhibition at 10µM (%) Replicate 2: 16.0%
[22]; CDK7, 10µM, average of replicates
  Inhibition at 10µM (%) Average: 12.9%

## CCc1cnn2c(NCc3ccc[n+]([O-])c3)cc(N3CCCC[C@H]3CCO)nc12 [Dinaciclib]
[2]; average
  inhibition at 10 µM: 35.5%
[2]; experiment 1
  inhibition at 10 µM: 46.2%
[2]; experiment 2
  inhibition at 10 µM: 24.7%
[6]; average
  inhibition at 10 µM: 45.5%
[6]; experiment 1
  inhibition at 10 µM: 46.1%
[6]; experiment 2
  inhibition at 10 µM: 45%
[13]; average
  inhibition at 10 µM: 33%
[13]; experiment 1
  inhibition at 10 µM: 36%
[13]; experiment 2
  inhibition at 10 µM: 29.9%
[14]; average
  inhibition at 10 µM: 24.5%
[14]; experiment 1
  inhibition at 10 µM: 40.6%
[14]; experiment 2
  inhibition at 10 µM: 8.4%
[18]; experiment 1
  inhibition at 10 µM: 71.7%
[18]; experiment 2
  inhibition at 10 µM: 78%
[20]; IC50, [Probe 1] 0.5 µM
  IC50: 850 nM
[20]; IC50, [Probe 1] 1 µM
  IC50: 740 nM
[20]; average
  inhibition at 10 µM: 74.8%
[20]; experiment 1
  inhibition at 10 µM: 77.5%
[20]; experiment 2
  inhibition at 10 µM: 72.2%
[23]
  IC50: 720 nM
[22]; CDK7, experiment 1, read-out: Inhibition at 10µM (%)
  inhibition at 10 µM: 94.8%
[22]; CDK7, experiment 2, read-out: Inhibition at 10µM (%)
  inhibition at 10 µM: 91.5%
[22]; read-out: Inhibition at 10µM (%), CDK7, average
  inhibition at 10 µM: 93.1%
